This is an account of results in patent publication US8765959B2, “Piperidine derivatives” (Boehringer Ingelheim International GmbH, priority 2011, dated 2014).

The target of the experiment is T1, human ACC2 (Homo sapiens, UniProt O00763).
T1 construct: made in house; host or cells: insect cells (baculoviral expression system)
Kind of experiment: ACC2 assay, spectrophotometric 384 well assay (NADH-linked, coupled lactate dehydrogenase/pyruvate kinase). As to conditions: ACC2 assay; human ACC2 construct lacking 128 N-terminal amino acids; 25° C., 340 nm, 15 minutes; read-out: IC50. Format: biochemical. The procedure: Spectrophotometric 384 Well Assay
Malonyl CoA formation by acetyl CoA carboxylases is stoichometrically linked to the consumption of ATP. ACC2 activity is measured in a NADH-linked kinetic method measuring ADP generated during the ACC reaction using a coupled lactate dehydrogenase/pyruvate kinase reaction.
For biological testing, a human ACC2 construct which lacks the 128 amino acids at the N-terminus for increased solubility (nt 385-6966 in Genbank entry AJ575592) is cloned. The protein is then expressed in insect cells using a baculoviral expression system. Protein purification is performed by anion exchange.
All compounds are dissolved in dimethyl sulfoxide (DMSO) to a concentration of 10 mM.
Assay reactions are then carried out in 384-well plates, with hACC2 in an appropriate dilution and at final assay concentrations (f.c.) of 100 mM Tris (pH 7.5), 10 mM trisodium citrate, 25 mM KHCO3, 10 mM MgCl2, 0.5 mg/ml BSA, 3.75 mM reduced L-glutathione, 15 U/ml lactate dehydrogenase, 0.5 mM phosphoenolpyruvate, 15 U/ml pyruvate kinase, compounds at different concentrations at final DMSO concentrations of 1%.
The enzymatic reaction is then started by addition of a mixture of NADH, acetyl Coenzyme A (both 200 μM f.c.) and ATP (500 uM f.c.). The decrease of the optical density (slope S) is then determined at 25° C. at a wavelength of 340 nm over 15 minutes in a spectrophotometric reader.
Each assay microtiter plate contains wells with vehicle instead of compound as controls for the non-inhibited enzyme (100% CTL; ‘HIGH’) and wells without acetyl-CoA as controls for non-specific NADH degradation (0% CTL; ‘LOW’).
The slope S is used for calculation of % CTL=(S(compound)−S(‘LOW’))/(S(‘HIGH’)−S(‘LOW’))*100. Compounds will give values between 100% CTL (no inhibition) and 0% CTL (complete inhibition).
For IC50 value determination, the sample slope in the presence of the test compound after subtraction of the low controls (S(compound)−S(‘LOW’)) are used.
An IC50 value is derived from the compound slopes at different dosages after subtraction of the low controls (S(compound)−S(‘LOW’)) by non-linear regression curve fitting (equation y=(A+((B−A)/(1+((C/x)^D))))).

Structures are written as SMILES.

T1 sequence (O00763 129-2458 limits assumed): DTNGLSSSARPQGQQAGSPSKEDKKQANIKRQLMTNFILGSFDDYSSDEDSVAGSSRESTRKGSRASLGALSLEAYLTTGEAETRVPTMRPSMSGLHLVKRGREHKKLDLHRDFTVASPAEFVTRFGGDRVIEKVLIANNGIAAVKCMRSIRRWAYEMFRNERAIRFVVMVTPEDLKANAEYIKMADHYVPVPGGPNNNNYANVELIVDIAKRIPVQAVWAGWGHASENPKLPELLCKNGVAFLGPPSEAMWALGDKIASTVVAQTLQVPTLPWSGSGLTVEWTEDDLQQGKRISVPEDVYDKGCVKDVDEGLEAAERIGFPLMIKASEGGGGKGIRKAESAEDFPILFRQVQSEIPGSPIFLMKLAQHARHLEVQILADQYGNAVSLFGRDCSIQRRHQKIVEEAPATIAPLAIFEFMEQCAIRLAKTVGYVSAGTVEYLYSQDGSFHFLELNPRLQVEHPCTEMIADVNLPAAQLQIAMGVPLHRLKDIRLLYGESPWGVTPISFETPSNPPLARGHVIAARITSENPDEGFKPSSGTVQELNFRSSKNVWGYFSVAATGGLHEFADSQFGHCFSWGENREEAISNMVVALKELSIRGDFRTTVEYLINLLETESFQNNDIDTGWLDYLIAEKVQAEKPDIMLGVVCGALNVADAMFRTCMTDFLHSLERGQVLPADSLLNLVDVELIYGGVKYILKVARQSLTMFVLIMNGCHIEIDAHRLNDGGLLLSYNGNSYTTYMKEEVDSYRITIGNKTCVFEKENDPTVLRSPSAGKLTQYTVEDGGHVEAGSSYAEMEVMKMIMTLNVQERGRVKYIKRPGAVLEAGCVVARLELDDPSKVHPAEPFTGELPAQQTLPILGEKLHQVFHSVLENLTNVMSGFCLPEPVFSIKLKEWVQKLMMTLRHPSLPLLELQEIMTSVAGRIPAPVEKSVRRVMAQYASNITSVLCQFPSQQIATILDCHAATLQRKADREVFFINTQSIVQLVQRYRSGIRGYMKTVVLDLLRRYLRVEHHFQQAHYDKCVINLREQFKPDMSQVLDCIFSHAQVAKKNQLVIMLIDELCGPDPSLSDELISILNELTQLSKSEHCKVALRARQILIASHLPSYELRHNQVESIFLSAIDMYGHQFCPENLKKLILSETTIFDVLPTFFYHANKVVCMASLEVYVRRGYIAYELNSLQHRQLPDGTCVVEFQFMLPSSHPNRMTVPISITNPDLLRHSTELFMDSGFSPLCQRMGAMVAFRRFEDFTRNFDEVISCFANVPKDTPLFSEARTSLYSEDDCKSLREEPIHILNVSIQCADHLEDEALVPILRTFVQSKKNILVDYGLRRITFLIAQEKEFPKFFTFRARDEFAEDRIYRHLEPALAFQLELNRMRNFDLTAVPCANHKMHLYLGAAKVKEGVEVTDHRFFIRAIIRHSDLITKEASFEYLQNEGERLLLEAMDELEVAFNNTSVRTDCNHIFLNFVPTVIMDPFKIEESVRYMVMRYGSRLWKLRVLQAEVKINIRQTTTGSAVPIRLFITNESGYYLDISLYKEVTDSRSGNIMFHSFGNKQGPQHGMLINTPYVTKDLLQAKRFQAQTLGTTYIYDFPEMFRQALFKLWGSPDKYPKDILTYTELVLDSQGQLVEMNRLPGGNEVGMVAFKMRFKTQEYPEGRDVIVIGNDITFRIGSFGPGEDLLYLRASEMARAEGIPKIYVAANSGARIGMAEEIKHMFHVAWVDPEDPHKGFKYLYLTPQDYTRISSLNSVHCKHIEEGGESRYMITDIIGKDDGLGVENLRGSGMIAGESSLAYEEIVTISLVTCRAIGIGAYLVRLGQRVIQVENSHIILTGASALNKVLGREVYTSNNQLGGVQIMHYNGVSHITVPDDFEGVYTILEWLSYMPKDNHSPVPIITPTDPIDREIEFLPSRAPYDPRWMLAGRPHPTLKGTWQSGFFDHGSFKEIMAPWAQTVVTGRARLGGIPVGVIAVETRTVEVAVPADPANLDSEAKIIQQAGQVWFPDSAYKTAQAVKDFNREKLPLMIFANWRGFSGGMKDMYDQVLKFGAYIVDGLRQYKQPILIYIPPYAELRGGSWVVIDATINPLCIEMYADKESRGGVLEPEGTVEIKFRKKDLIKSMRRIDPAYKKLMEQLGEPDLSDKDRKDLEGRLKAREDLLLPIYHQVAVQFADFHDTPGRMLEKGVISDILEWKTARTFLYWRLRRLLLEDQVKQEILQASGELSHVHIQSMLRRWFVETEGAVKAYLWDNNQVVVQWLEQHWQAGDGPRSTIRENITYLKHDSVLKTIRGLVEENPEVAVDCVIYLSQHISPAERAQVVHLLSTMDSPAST

In the case of `C[C@H](NC(=O)N(C)C)c1ccc(N2CCC(c3ccc(OCC4CC4)cc3)CC2)cc1` [Example 1.24], the IC50 (in general, the concentration at which inhibition is half-maximal) amounted to 540 nM.
As for `CCOc1ccc(C2CCN(c3ccc([C@H](C)NC(=O)CC)cc3)CC2)cc1` [Example 2.4], the half-inhibitory concentration (IC50) amounted to 710 nM.
In the case of `CCOc1ccc(C2CCN(c3ccc([C@H](C)NC(=O)N(CC)CC)cc3)CC2)cc1` [Example 4.4], the IC50 turned out to be 3690 nM.
For the compound `CCOc1ccc(C2CCN(c3ccc([C@H](C)NC(=O)CSC)cc3)CC2)cc1` [Example 2.3], the IC50 was found to be 1210 nM.
For `CCOc1ccc(C2CCN(c3ccc([C@H](C)NC(=O)N(C)c4cccnc4)cc3)CC2)cc1` [Example 4.2], the IC50 was found to be 1160 nM.
